Test results published in ChEMBL document CHEMBL1129835, “Selective cytotoxicity of certain 9-substituted ellipticines for leukemia cells in a variety of leukemia cell cultures” (1997).

What was measured:
Format in all cases: functional
SNB-19 = assay: Effective dose to show cytotoxicity against CNS cancer SNB-19 cell line was determined; conditions: Homo sapiens, read-out: ED50 (the source's name)
MDA-N [1] = assay: Concentration for 50% cell kill against breast cancer MDA-N cell line was determined; conditions: Homo sapiens, read-out: LC50 (the source's name)
RPMI-8226 [2] = assay: Effective dose to show cytotoxicity against leukemia RPMI-8226 cell line was determined; conditions: Homo sapiens, read-out: ED50 (the source's name)
HL-60 [3] = assay: Concentration for 50% cell kill against leukemia HL-60 (TB) cell line was determined; conditions: Homo sapiens, read-out: LC50 (the source's name)
NCI-H322M = assay: Cytotoxicity exhibited by the compound for total growth inhibition of non-small cell lung cancer NCI-H322M cell line; conditions: Homo sapiens
MDA-N [4] = assay: The compound was evaluated for cytotoxicity against MDA-N breast cancer cell line; conditions: Homo sapiens
CAKI-1 [5] = assay: Effective dose to show cytotoxicity against renal cancerCAKI-1 cell line was determined; conditions: Homo sapiens, read-out: ED50 (the source's name)
PC-3 [6] = assay: The compound was evaluated for cytotoxicity against PC-3 prostate cancer cell line; conditions: Homo sapiens
IGROV-1 [7] = assay: The compound was evaluated for cytotoxicity against IGROV1 ovarian cancer cell line; conditions: Homo sapiens
HL-60 [8] = assay: Effective dose to show cytotoxicity against leukemia HL-60 (TB) cell line was determined; conditions: Homo sapiens, read-out: ED50 (the source's name)
IGROV-1 [9] = assay: Concentration for 50% cell kill against ovarian cancer IGROV 1 cell line was determined; conditions: Homo sapiens, read-out: LC50 (the source's name)
PC-3 [10] = assay: Concentration for 50% cell kill against prostate cancerPC-3 cell line was determined; conditions: Homo sapiens, read-out: LC50 (the source's name)
COLO 205 = assay: Effective dose to show cytotoxicity against colon cancer COLO 205 cell line was determined; conditions: Homo sapiens, read-out: ED50 (the source's name)
K562 [11] = assay: Cytotoxicity exhibited by the compound for total growth inhibition of leukemia K-562 cell line; conditions: Homo sapiens
SR = assay: Effective dose to show cytotoxicity against leukemia SR cell line was determined; conditions: Homo sapiens, read-out: ED50 (the source's name)
DU-145 [12] = assay: Concentration for 50% cell kill against prostate cancerDU-145 cell line was determined; conditions: Homo sapiens, read-out: LC50 (the source's name)
K562 [13] = assay: Concentration for 50% cell kill against leukemia K-562 cell line was determined; conditions: Homo sapiens, read-out: LC50 (the source's name)
SN12C [14] = assay: Concentration for 50% cell kill against renal cancer SN12C cell line was determined; conditions: Homo sapiens, read-out: LC50 (the source's name)
NCI-H23 = assay: Cytotoxicity exhibited by the compound for total growth inhibition of non-small cell lung cancer NCI-H23 cell line; conditions: Homo sapiens
SNB-75 [15] = assay: Effective dose to show cytotoxicity against CNS cancer SNB-75 cell line was determined; conditions: Homo sapiens, read-out: ED50 (the source's name)
T47D = assay: Concentration for 50% cell kill against breast cancer T-47D cell line was determined; conditions: Homo sapiens, read-out: LC50 (the source's name)
Malme-3M [16] = assay: Cytotoxicity exhibited by the compound for total growth inhibition of melanoma MALME-3M cell line; conditions: Homo sapiens
CCRF-CEM = assay: Effective dose to show cytotoxicity against leukemia CCRF-CEM cell line was determined; conditions: Homo sapiens, read-out: ED50 (the source's name)
RPMI-8226 [17] = assay: Cytotoxicity exhibited by the compound for total growth inhibition of leukemia RPMI-8226 cell line; conditions: Homo sapiens
LOX IMVI = assay: Effective dose to show cytotoxicity against melanomaLOX IMVI cell line was determined; conditions: Homo sapiens, read-out: ED50 (the source's name)
Malme-3M [18] = assay: Concentration for 50% cell kill against melanoma MALME-3M cell line was determined; conditions: Homo sapiens, read-out: LC50 (the source's name)
DU-145 [19] = assay: Cytotoxicity exhibited by the compound for total growth inhibition of prostate cancer DU-145 cell line; conditions: Homo sapiens
OVCAR-8 [20] = assay: Cytotoxicity exhibited by the compound for total growth inhibition of ovarian cancer OVCAR-8 cell line; conditions: Homo sapiens
K562 [21] = assay: Effective dose to show cytotoxicity against leukemia K-562 cell line was determined; conditions: Homo sapiens, read-out: ED50 (the source's name)
PC-3 [22] = assay: Cytotoxicity exhibited by the compound for total growth inhibition of prostate cancer PC-3 cell line; conditions: Homo sapiens
OVCAR-8 [23] = assay: Effective dose to show cytotoxicity against ovarian cancer OVCAR-8 cell line was determined; conditions: Homo sapiens, read-out: ED50 (the source's name)
CAKI-1 [24] = assay: Cytotoxicity exhibited by the compound for total growth inhibition of renal cancer CAKI-1 cell line; conditions: Homo sapiens
CAKI-1 [25] = assay: Concentration for 50% cell kill against renal cancerCAKI-1 cell line was determined; conditions: Homo sapiens, read-out: LC50 (the source's name)
NCI-H522 = assay: Concentration for 50% cell kill against non-small cell lung cancer NCI-H522 cell line was determined; conditions: Homo sapiens, read-out: LC50 (the source's name)
PC-3 [26] = assay: Effective dose to show cytotoxicity against prostate cancer PC-3 cell line was determined; conditions: Homo sapiens, read-out: ED50 (the source's name)
SNB-75 [27] = assay: Cytotoxicity exhibited by the compound for total growth inhibition of CNS cancer SNB-75 cell line; conditions: Homo sapiens
RPMI-8226 [28] = assay: Concentration for 50% cell kill against leukemia RPMI-8226 cell line was determined; conditions: Homo sapiens, read-out: LC50 (the source's name)
IGROV-1 [29] = assay: Cytotoxicity exhibited by the compound for total growth inhibition of ovarian cancer IGROV 1 cell line; conditions: Homo sapiens
M14 [30] = assay: Cytotoxicity exhibited by the compound for total growth inhibition of melanoma M14 cell line; conditions: Homo sapiens
KM12 = assay: Effective dose to show cytotoxicity against colon cancer KM-12 cell line was determined; conditions: Homo sapiens, read-out: ED50 (the source's name)
SN12C [31] = assay: Cytotoxicity exhibited by the compound for total growth inhibition of renal cancer SN12C cell line; conditions: Homo sapiens
MDA-N [32] = assay: Cytotoxicity exhibited by the compound for total growth inhibition of breast cancer MDA-N cell line; conditions: Homo sapiens
Malme-3M [33] = assay: Effective dose to show cytotoxicity against melanoma MALME-3M cell line was determined; conditions: Homo sapiens, read-out: ED50 (the source's name)
IGROV-1 [34] = assay: Effective dose to show cytotoxicity against ovarian cancer IGROV 1 cell line was determined; conditions: Homo sapiens, read-out: ED50 (the source's name)
M14 [35] = assay: Effective dose to show cytotoxicity against melanoma M14 cell line was determined; conditions: Homo sapiens, read-out: ED50 (the source's name)
U-251 = assay: Effective dose to show cytotoxicity against CNS cancer U251 cell line was determined; conditions: Homo sapiens, read-out: ED50 (the source's name)
DU-145 [36] = assay: Effective dose to show cytotoxicity against prostate cancer DU-145 cell line was determined; conditions: Homo sapiens, read-out: ED50 (the source's name)

Cc1c2ccncc2c(C)c2c1[nH]c1ccc(CO)cc12
EC50 (SNB-19): 210 nM
CC50 (MDA-N [1]): 4330 nM
EC50 (RPMI-8226 [2]): 30 nM
CC50 (HL-60 [3]): 900 nM
TGI (NCI-H322M): 11500 nM
GI50 (MDA-N [4]): 350 nM
EC50 (CAKI-1 [5]): 370 nM
GI50 (PC-3 [6]): 450 nM
GI50 (IGROV-1 [7]): 180 nM
EC50 (HL-60 [8]): 20 nM
CC50 (IGROV-1 [9]): 62000 nM
CC50 (PC-3 [10]): 23300 nM
EC50 (COLO 205): 240 nM
TGI (K562 [11]): 110 nM
EC50 (SR): 40 nM
CC50 (DU-145 [12]): 35000 nM
CC50 (K562 [13]): > 100000 nM
CC50 (SN12C [14]): 1910 nM
TGI (NCI-H23): 9440 nM
EC50 (SNB-75 [15]): 490 nM
CC50 (T47D): 78200 nM
TGI (Malme-3M [16]): 7350 nM
EC50 (CCRF-CEM): 60 nM
TGI (RPMI-8226 [17]): 220 nM
EC50 (LOX IMVI): 370 nM
CC50 (Malme-3M [18]): 820 nM
TGI (DU-145 [19]): 11900 nM
TGI (OVCAR-8 [20]): 11300 nM
EC50 (K562 [21]): 30 nM
TGI (PC-3 [22]): 3600 nM
EC50 (OVCAR-8 [23]): 420 nM
TGI (CAKI-1 [24]): 13400 nM
CC50 (CAKI-1 [25]): 52600 nM
CC50 (NCI-H522): > 100000 nM
EC50 (PC-3 [26]): 450 nM
TGI (SNB-75 [27]): 2630 nM
CC50 (RPMI-8226 [28]): 5570 nM
TGI (IGROV-1 [29]): 11700 nM
TGI (M14 [30]): 3650 nM
EC50 (KM12): 160 nM
TGI (SN12C [31]): 3470 nM
TGI (MDA-N [32]): 1690 nM
EC50 (Malme-3M [33]): 640 nM
EC50 (IGROV-1 [34]): 180 nM
EC50 (M14 [35]): 600 nM
EC50 (U-251): 280 nM
EC50 (DU-145 [36]): 1290 nM
